Measurements published in ChEMBL document CHEMBL1128113, “A novel series of arylpiperazines with high affinity and selectivity for the dopamine D3 receptor” (Bioorg Med Chem Lett, 1995).

Experiments:
[1] = target: T1, 5-hydroxytryptamine receptor 1A (Rattus norvegicus, UniProt P19327); assay: Binding affinity towards 5-hydroxytryptamine 1A receptor using [3H]8-OH-DPAT in rat hippocampus; format: tissue-based
T1 sequence (P19327 whole entry): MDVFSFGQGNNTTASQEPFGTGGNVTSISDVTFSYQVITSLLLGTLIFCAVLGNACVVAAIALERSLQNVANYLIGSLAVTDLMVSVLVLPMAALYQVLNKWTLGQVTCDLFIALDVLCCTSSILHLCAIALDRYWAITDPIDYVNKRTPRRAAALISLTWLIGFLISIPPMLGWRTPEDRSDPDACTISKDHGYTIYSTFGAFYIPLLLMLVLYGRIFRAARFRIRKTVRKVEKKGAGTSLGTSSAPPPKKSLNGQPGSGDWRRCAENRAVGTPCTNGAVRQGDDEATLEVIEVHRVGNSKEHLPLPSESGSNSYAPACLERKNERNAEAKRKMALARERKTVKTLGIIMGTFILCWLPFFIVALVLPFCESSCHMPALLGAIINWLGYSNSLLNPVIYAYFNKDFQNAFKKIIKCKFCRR

[2] = target: T2, Adrenergic receptor alpha-1 (Rattus norvegicus, UniProt P15823+P23944+P43140); assay: Compound was evaluated for binding affinity towards Alpha-1 adrenergic receptor using [3H]prazosin in rat heart
T2 sequence (P15823 whole entry): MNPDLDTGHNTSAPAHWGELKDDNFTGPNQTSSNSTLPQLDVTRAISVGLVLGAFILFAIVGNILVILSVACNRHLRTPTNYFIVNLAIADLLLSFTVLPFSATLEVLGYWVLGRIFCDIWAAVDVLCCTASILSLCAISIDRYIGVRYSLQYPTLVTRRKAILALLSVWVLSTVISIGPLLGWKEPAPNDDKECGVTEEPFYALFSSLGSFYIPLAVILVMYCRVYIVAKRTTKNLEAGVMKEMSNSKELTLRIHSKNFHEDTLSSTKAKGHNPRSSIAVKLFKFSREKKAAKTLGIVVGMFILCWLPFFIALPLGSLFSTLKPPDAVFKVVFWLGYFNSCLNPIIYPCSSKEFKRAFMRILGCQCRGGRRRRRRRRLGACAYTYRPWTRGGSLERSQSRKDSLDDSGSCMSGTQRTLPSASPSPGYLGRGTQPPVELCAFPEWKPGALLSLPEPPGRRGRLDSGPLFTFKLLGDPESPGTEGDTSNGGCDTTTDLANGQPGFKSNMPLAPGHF
T2 sequence (P23944 whole entry): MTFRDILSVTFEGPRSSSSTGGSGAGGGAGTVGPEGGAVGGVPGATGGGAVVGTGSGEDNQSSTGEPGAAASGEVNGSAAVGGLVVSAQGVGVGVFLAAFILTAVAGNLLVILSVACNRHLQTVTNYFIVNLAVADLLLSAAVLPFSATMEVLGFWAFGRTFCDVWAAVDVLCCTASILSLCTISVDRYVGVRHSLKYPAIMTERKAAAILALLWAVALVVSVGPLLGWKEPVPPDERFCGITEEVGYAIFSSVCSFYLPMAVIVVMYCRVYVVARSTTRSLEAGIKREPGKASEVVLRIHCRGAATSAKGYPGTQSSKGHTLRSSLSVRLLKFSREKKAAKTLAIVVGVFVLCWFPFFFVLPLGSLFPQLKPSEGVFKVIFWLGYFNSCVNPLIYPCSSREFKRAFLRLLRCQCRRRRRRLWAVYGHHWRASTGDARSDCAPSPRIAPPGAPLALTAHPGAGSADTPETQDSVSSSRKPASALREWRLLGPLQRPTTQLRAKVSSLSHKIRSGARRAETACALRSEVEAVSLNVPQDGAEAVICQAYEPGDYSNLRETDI
T2 sequence (P43140 whole entry): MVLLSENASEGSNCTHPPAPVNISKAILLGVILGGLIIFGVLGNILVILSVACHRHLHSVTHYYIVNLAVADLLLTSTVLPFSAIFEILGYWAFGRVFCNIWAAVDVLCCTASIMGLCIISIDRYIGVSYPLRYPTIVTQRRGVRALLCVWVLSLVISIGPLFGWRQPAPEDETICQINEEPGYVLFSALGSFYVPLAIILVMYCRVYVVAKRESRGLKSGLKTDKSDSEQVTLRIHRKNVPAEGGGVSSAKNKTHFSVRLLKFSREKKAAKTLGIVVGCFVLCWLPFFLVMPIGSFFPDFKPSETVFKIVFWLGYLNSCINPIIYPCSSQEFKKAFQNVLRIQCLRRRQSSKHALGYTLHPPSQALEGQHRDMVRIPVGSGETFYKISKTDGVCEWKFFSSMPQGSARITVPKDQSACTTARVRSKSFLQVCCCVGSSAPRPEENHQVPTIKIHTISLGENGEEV

[3] = target: D(1A) dopamine receptor (Rattus norvegicus, UniProt P18901); assay: Binding affinity towards D1 receptor using [3H]-SCH- 23390 in rat striatal tissue; format: tissue-based, Striatum
[4] = target: D(2) dopamine receptor (Homo sapiens, UniProt P14416)
[5] = target: D(3) dopamine receptor (Homo sapiens, UniProt P35462); assay: biochemical
[6] = test system: Rattus norvegicus; assay: Selectivity for mesolimbic over nigrostriatal dopamine system in rat brain as substania nigra zona reticulata infusion of muscimol-induced locomotor activity (LMA) by sc dose; format: functional
[7] = target: T3, D(4) dopamine receptor (Homo sapiens, UniProt P21917); assay: Binding affinity towards Chinese hamster ovary cells transfected with human D4 receptor using [3H]spiperone; format: cell-based
T3 sequence (P21917 whole entry): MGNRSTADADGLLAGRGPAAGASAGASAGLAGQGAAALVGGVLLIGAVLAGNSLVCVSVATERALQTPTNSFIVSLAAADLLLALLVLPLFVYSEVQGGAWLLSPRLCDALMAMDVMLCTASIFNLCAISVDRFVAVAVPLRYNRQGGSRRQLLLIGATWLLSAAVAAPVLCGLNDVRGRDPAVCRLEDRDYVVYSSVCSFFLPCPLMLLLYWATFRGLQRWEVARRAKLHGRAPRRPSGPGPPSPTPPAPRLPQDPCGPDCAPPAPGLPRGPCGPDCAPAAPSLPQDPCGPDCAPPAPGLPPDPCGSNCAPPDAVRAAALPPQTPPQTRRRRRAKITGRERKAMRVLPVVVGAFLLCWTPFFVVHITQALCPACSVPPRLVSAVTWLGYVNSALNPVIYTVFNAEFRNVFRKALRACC

[8] = test system: Rattus norvegicus; assay: Selectivity for mesolimbic over nigrostriatal dopamine system in rat brain as ventral tegmental area infusion of muscimol induced locomotor activity (LMA) by sc dose; format: functional
[9] = target: 5-hydroxytryptamine receptor 2A (Bos taurus) (UniProt Q75Z89); assay: Binding affinity towards 5-hydroxytryptamine 2 receptor
[10] = target: Serotonin 3 (5-HT3) receptor; assay: Binding affinity towards 5-hydroxytryptamine 3 receptor; format: protein-complex assay
[11] = target: T2, Adrenergic receptor alpha-1; assay: Binding affinity towards Alpha-1 adrenergic receptor using [3H]prazosin in rat heart
[12] = target: Adrenergic receptor alpha-1 (Homo sapiens) (UniProt P35348+P25100+P35368); assay: Binding affinity towards Alpha-1 adrenergic receptor; format: protein assay
[13] = target: T3, D(4) dopamine receptor; assay: Binding affinity towards Dopamine D4 receptor

D(3) dopamine receptor, sequence (P35462 whole entry, the tested form may be a part): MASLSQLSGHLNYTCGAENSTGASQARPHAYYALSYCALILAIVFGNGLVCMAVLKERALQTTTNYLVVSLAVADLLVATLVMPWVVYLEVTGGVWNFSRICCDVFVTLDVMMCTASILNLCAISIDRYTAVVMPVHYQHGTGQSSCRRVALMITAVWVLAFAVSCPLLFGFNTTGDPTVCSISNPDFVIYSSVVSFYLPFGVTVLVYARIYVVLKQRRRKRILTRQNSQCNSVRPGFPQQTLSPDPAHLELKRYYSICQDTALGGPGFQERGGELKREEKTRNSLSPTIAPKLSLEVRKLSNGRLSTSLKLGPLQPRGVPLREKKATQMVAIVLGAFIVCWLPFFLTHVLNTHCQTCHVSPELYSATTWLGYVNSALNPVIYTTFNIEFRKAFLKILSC
D(2) dopamine receptor, sequence (P14416 whole entry): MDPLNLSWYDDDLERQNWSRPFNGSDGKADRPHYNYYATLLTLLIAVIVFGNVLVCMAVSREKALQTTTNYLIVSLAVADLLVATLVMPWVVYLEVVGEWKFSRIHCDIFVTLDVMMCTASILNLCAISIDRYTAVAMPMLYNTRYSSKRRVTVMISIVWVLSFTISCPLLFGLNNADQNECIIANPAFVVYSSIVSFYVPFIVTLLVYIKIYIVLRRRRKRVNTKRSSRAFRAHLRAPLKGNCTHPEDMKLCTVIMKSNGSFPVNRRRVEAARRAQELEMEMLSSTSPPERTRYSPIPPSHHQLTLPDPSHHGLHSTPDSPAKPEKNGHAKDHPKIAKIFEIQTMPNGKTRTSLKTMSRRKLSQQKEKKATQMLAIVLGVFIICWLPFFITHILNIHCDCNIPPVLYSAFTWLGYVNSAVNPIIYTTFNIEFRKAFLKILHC
D(1A) dopamine receptor, sequence (P18901 whole entry): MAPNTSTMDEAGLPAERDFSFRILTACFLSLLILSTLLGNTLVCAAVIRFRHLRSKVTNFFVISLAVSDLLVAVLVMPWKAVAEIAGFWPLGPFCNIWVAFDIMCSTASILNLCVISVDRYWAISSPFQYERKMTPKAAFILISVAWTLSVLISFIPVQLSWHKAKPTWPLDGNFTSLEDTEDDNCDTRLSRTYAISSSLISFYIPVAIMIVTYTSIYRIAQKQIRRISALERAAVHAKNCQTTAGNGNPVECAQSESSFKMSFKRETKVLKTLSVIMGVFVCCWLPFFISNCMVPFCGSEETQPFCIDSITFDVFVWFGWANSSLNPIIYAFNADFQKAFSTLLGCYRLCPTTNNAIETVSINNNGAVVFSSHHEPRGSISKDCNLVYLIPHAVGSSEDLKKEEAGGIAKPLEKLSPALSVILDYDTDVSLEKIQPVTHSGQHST
5-hydroxytryptamine receptor 2A (Bos taurus), sequence (Q75Z89 whole entry): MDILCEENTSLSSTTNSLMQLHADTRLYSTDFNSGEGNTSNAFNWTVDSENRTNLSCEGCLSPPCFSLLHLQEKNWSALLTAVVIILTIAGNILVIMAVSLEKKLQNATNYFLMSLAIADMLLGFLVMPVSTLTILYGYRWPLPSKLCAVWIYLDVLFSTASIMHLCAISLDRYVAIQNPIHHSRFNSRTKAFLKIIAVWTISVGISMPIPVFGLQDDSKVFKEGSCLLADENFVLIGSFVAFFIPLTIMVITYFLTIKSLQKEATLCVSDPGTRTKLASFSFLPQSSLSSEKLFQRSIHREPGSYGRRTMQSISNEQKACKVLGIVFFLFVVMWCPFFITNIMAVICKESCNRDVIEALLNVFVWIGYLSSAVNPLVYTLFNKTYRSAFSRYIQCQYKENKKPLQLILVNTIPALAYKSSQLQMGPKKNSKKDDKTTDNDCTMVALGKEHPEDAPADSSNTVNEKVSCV

Row | Ki [1] [nM] | Log Ki [2] | Ki [3] [nM] | Ki [4] [nM] | Ki [5] [nM] | Structure (SMILES) | further results
1 | 20 | -7.9 | 158 | 25.1 | 0.316 | COc1ccccc1N1CCN(CCCCNC(=O)c2ccc(-c3ccc(S(C)(=O)=O)cc3)cc2)CC1 | –
2 | 126 | – | – | 398 | 6.31 | O=C(NCCCCN1CCN(c2ccccc2)CC1)c1ccc(Br)cc1 | –
3 | – | – | – | – | – | O=C(CCCN1CCC(O)(c2ccc(Cl)cc2)CC1)c1ccc(F)cc1 [HALOPERIDOL] | ED50 [6]: 0.05 mg/kg
4 | 251 | -7.5 | – | 100 | 3.16 | COc1ccc(OC)c(N2CCN(CCCCNC(=O)c3ccc(Br)cc3)CC2)c1 | –
5 | 12.6 | -7.9 | 501 | 39.8 | 0.501 | COc1ccccc1N1CCN(CCCCNC(=O)c2ccc(Br)cc2)CC1 | Ki [7]: 50.1 nM
6 | – | – | – | – | – | CN1CCN(C2=Nc3cc(Cl)ccc3Nc3ccccc32)CC1 [CLOZAPINE] | ED50 [8]: 0.002 mg/kg
7 | 3.16 | – | 398 | 39.8 | 0.316 | COc1ccccc1N1CCN(CCCCNC(=O)c2ccc(-c3ccc(C(C)=O)cc3)cc2)CC1 | pKB [9]: < 5; Log Ki [10]: > -5; Log Ki [11]: -7.9; pKB [12]: 7.8; Ki [13]: 63.1 nM; ED50 [6]: > 10 mg/kg; ED50 [8]: 0.3 mg/kg
8 | 12.6 | -8 | 100 | 20 | 0.2 | COc1ccccc1N1CCN(CCCCNC(=O)c2ccc(-c3ccc(N)cc3)cc2)CC1 | –
